These results are taken from patent US8686050B2, “Diglycidic ether derivative therapeutics and methods for their use” (British Columbia Cancer Agency Branch, priority 2008, dated 2014).

For assay [1], the target named is T1, Gal4 DBD-AR1-558 (AR NTD) (Homo sapiens, UniProt P10275).
T1 construct: cloning amino acids 1-558 of the human AR NTD into the C-terminus of Gal4 DBD; expressed in transfected cells; host or cells: LNCaP
T1 sequence (P10275 1-558): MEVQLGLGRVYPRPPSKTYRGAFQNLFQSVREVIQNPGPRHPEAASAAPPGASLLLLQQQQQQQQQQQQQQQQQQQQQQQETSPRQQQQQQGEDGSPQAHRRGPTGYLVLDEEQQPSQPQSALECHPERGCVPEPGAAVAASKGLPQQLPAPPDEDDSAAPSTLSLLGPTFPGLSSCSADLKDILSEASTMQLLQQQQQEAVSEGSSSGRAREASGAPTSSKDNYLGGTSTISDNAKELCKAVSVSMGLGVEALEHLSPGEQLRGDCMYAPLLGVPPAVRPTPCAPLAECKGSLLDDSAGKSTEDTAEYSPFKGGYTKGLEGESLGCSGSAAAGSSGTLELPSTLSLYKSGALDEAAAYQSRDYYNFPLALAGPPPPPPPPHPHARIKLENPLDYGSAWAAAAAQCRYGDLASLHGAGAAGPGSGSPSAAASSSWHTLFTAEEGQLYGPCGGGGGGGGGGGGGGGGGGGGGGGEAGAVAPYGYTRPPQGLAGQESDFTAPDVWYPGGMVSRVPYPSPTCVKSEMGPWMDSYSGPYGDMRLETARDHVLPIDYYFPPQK
The assay can be described thus: Transactivation of the AR NTD (Gal4 DBD-AR1-558 with 5xGal4UAS-luciferase) in LNCaP cells. The assay is classed as cell-based. Particulars: for inhibition at 20 µM: read-out: inhibition of Fsk activation of Ga14ARN. The source says:
These fractions were next tested for their ability to inhibit the AR NTD. […] Extracts identified above were screened by such assays as well as some compounds purchased from commercial suppliers.
Expression vectors for these chimeric proteins were cotransfected into LNCaP cells with a reporter gene containing the Gal4-binding site as cis-acting elements (p5×Gal4UAS-TATA-luciferase).

In assay [2] the target is T2, AR (Homo sapiens, UniProt P10275, T878A).
T2 sequence (P10275 1-920 T878A): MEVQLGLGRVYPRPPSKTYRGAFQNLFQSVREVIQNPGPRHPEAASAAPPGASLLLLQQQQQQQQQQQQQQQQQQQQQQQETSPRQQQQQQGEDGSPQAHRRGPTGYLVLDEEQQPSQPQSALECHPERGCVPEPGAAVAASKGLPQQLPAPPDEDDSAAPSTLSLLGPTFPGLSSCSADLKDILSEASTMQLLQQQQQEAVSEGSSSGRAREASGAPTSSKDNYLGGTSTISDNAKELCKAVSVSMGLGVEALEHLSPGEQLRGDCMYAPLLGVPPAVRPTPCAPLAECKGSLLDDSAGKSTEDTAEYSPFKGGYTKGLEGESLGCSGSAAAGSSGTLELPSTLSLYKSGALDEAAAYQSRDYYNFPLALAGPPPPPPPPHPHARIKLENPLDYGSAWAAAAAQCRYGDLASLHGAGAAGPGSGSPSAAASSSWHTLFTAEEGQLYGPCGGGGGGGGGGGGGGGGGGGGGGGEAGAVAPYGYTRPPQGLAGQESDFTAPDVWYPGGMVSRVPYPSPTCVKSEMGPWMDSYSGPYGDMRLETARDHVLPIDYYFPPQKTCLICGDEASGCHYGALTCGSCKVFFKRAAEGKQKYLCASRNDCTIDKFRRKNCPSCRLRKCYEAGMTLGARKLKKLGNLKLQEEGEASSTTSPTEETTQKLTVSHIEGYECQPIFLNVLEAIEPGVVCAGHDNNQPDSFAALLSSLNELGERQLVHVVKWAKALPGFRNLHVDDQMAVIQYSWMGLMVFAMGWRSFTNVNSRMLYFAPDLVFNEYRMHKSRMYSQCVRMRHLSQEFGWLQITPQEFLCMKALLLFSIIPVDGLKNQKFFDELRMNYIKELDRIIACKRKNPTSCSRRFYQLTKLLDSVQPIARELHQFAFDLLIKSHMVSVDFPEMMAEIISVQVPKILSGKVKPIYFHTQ
The assay can be described thus: PSA (6.1 kb)-luciferase (p6.1luc) reporter in LNCaP cells. It counts as cell-based. The arrangement: LNCaP cells express endogenous AR and secrete prostate-specific antigen (PSA); endogenous in cells; host or cells: LNCaP. The source says:
LNCaP cells were employed initially for all experiments because they are well-differentiated human prostate cancer cells in which ligand-independent activation of the AR by FSK has been characterized (Nazareth et al 1996 J. Biol. Chem. 271, 19900-19907; and Sadar 1999 J. Biol. Chem. 274, 7777-7783). LNCaP cells express endogenous AR and secrete prostate-specific antigen (PSA) (Horoszewicz et al 1983 Cancer Res. 43, 1809-1818). LNCaP cells can be grown either as monolayers in cell culture or as tumors in the well-characterized xenograft model that progresses to androgen independence in castrated hosts (Sato et al 1996 J. Steroid Biochem. Mol. Biol. 58, 139-146; Gleave et al 1991 Cancer Res. 51, 3753-3761; Sato et al 1997 Cancer Res. 57, 1584-1589; and Sadar et al 2002 Mol. Cancer. Ther. 1(8), 629-637). […] Small molecules that specifically target the AR-NTD should have no effect on PC3 cells. This means that they should not alter the proliferation of PC3 cells if they specifically block the AR to mediate their inhibitory effects. R1881 was employed since it is stable and avoids problems associated with the labile physiological ligand dihydrotestosterone (DHT). Reporter specificity may be determined using several alternative reporter gene constructs. Some well characterized ARE-driven reporter gene constructs that have been used extensively are the PSA (6.1 kb) enhance/promoter which contains several AREs and is highly inducible by androgens as well as by FSK (Ueda et al 2002 A J. Biol. Chem. 277, 7076-7085) and the ARR3-thymidine kinase (tk)-luciferase, which is an artificial reporter construct that contains three tandem repeats of the rat probasin ARE1 and ARE2 regions upstream of a luciferase reporter (Snoek et al 1996 J. Steroid Biochem. Mol. Biol. 59, 243-250).
To ensure that the inhibitory effects of PNG 01-185 extract on endogenous PSA protein was at the transcriptional level, reporter gene constructs were also examined. Activation of the endogenous AR was measured in LNCaP human prostate cancer cells by measuring androgen-responsive reporters that contain androgen response elements (AREs) such as the PSA-luciferase reporter gene construct or the ARR3-luciferase reporter. LNCaP cells maintained as monolayers were transfected with PSA-luciferase and were used to screen the crude extracts prepared from marine sponges as well as some selected commercial compounds. […] R1881 (1 nM) was used to mediate ligand-dependent activation of the AR and concentrations of FSK (50 μM) were used to mediate ligand-independent activation of the AR.

Assay [3] has as its target T2, AR. Description: ARR3-luciferase reporter in LNCaP cells. The assay is classed as cell-based. The arrangement: LNCaP cells express endogenous AR and secrete prostate-specific antigen (PSA); endogenous in cells; host or cells: LNCaP. Particulars: read-out: inhibition of R1881 activation of ARR31uc. The source says: LNCaP cells were employed initially for all experiments because they are well-differentiated human prostate cancer cells in which ligand-independent activation of the AR by FSK has been characterized (Nazareth et al 1996 J. Biol. Chem. 271, 19900-19907; and Sadar 1999 J. Biol. Chem. 274, 7777-7783). LNCaP cells express endogenous AR and secrete prostate-specific antigen (PSA) (Horoszewicz et al 1983 Cancer Res. 43, 1809-1818). LNCaP cells can be grown either as monolayers in cell culture or as tumors in the well-characterized xenograft model that progresses to androgen independence in castrated hosts (Sato et al 1996 J. Steroid Biochem. Mol. Biol. 58, 139-146; Gleave et al 1991 Cancer Res. 51, 3753-3761; Sato et al 1997 Cancer Res. 57, 1584-1589; and Sadar et al 2002 Mol. Cancer. Ther. 1(8), 629-637). […] Reporter specificity may be determined using several alternative reporter gene constructs. […]
To ensure that the inhibitory effects of PNG 01-185 extract on endogenous PSA protein was at the transcriptional level, reporter gene constructs were also examined. Activation of the endogenous AR was measured in LNCaP human prostate cancer cells by measuring androgen-responsive reporters that contain androgen response elements (AREs) such as the PSA-luciferase reporter gene construct or the ARR3-luciferase reporter. […]
In general terms: Reporter assays use an easily measured gene product as a stand-in for the process of interest.

In the next assay the test system is LNCaP xenografts. Description: LNCaP subcutaneous xenografts in castrated mice. Conditions: castrated mice. It counts as in vivo, NOD-SCID male mice. As for the experimental part: Six to eight-week old male athymic SCID mice were inoculated subcutaneously in the flank region via a 27-gauge needle with a 150 μl suspension of LNCaP or PC3 human prostate cancer cells (1×10^6 cells). The inoculations took place while the animal was under isofluorane anaesthesia. The tumor take rate is approximately 75%. Mice bearing tumors of 100 mm^3 were randomly assigned to treatment groups. Castration was performed as described below. Tumor volume (formula: L×W×H×0.5236) was measured in mice bearing LNCaP subcutaneous tumors that became palpable or visible and at least 40 mm^3. The animals were monitored daily and tumors were measured every 5 days.

Where [4] appears, read: LNCaP, at 12.5 μM, read-out: inhibition of R1881 activation of p6.1luc.

Usually inhibition stands for the relative decrease from the control value, in per cent.

Several values for one entry are separate records, joined by “and”; a condition that tells them apart may be missing. Equal values may be shown once.

As to `CC(C)(c1ccc(OCC(O)CO)cc1)c1ccc(OCC(O)CI)cc1` (centres unmarked), the inhibition at 20 µM came to 7% in assay [1] (LNCaP) and 33% at AR [2] (LNCaP, at 20 μM, read-out: inhibition of R1881 activation of p6.1luc). Moreover, the inhibition at 12.5 µM at AR [2] (setting [4]) came out at 20%.

Consider `CC(C)(c1ccc(OCC(O)CO)cc1)c1ccc(OCC(O)CO)cc1` (centres unmarked), for which the inhibition at 50 µM at AR [3] came out at 10%.

On to `CC(C)(c1ccc(OCC(O)CCl)cc1)c1ccc(OCC(O)CCl)cc1` (racemic) [BADGE.2HCl, Racemic BADGE×2HCl], for which the “LNCaP tumor volume at start of treatment, intratumoral” value with LNCaP xenografts (I.T. delivery) is reported as 109.6±17.4 mm^3. Besides, the “size of LNCaP xenograft tumors, intratumoral injection” value in the assay on LNCaP xenografts (I.T. every 5 days, 20 mg/kg body weight) is reported as “reduced the size of the tumors”. In addition, in the assay on LNCaP xenografts (i.t. every 5 days, five doses), the “LNCaP tumor volume at the duration (end) of the experiment, intratumoral” value is 79.0±63.6 mm^3.

`CC(C)(c1ccc(OCC(O)CCl)cc1)c1ccc(OCC(O)CCl)cc1` (centres unmarked) [drawing 123]: the inhibition at 12.5 µM was 79% in assay [1] (LNCaP, read-out: inhibition of Fsk activation of Ga14ARN, at 12.5 μM) and 69% at AR [2] (setting [4]). Besides, the “inhibition of R1881 activation of p6.1luc” value (“inhibition … of p6.1luc” for short) against AR [2] (at 12.5 μM) stood at 63%.

For the compound `CC(C)(c1ccc(OCC(O)CCl)cc1)c1ccc(OCC(O)CCl)cc1` (centres unmarked) [drawing 124], the “inhibition of Fsk activation of Ga14ARN” value in assay [1] (at 12.5 μM) was found to be 88%. Further, the “inhibition … of p6.1luc” value at AR [2] (at 12.5 μM) is given as 55%; against AR [2] (concentration not given), 34.8%.

`CC(C)(c1ccc(OCC(O)CI)cc1)c1ccc(OCC(O)CI)cc1` (centres unmarked) [drawing 125]: the inhibition at 20 µM in assay [1] (LNCaP) worked out at 33%. The inhibition at 12.5 µM on AR [2] (setting [4]) was determined as 35%. The “inhibition … of p6.1luc” value against AR [2] (at 12.5 μM) turned out to be 33%.

For `CC(C)(c1ccc(OCC(O)CI)cc1)c1ccc(OCC(O)CI)cc1` (centres unmarked) [drawing 126], the “inhibition … of p6.1luc” value against AR [2] (at 12.5 μM) was 42% and 29%.
